This is an account of results in US20240083898A1, “TRICYCLIC TRIAZOLO COMPOUNDS AS DGK INHIBITORS” (Incyte Corporation, priority 2022, published 2024).

pIC50: −log10 of the molar value.

In general, pIC50 refers to −log10 of the IC50, conventionally taken in molar units.

One assay concerns the target T1, DGKα (Homo sapiens, UniProt P23743).
T1 construct: His; purchased Signal Chem D21-10BH
In words: In vitro DGKα inhibition assay (ADP-Glo). The following applies: His-tagged human recombinant enzyme, 0.1 nM DGKα, 50 μM ATP, 20 μM DLG, 90 minute incubation. It is filed as biochemical. How it is done:
(§1) The DGKα and DGKζ biochemical reactions were performed using His-tagged human recombinant enzymes (Signal Chem, DGKα, #D21-10BH; DGKζ, #D30-10H)) and DLG (Dilauroyl-sn-glycerol) lipid substrate (Signal Chem, #D430-59). ADP-Glo assay was performed using ADP-Glo™ kinase Assay kit (Promega, #V9104). The reactions were carried out in assay buffer containing 40 mM Tris, pH 7.5, 0.1% CHAPS, 0.1% Prionex, 40 mM NaCl, 5 mM MgCl2, 1 mM CaCl2, and 1 mM DTT. DGKα reactions contained 0.1 nM DGKα, 50 μM ATP, and 20 μM DLG. And DGKζ reactions contained 0.4 nM DGKζ, 30 μM ATP, and 20 μM DLG.
(§2) For compound inhibition studies, 40 nL test compound in DMSO was added to wells of white polystyrene plates in 384-well (Greiner, #784075) or 1536-well format (Greiner, #782075). Compounds were added with top concentration of 2 mM with 11 point, 3-fold dilution series. Enzyme solution (contains 2× DGK enzyme concentration in 1× assay buffer) was added to the plate in 2 μL/well volume, followed by 2 μL/well of substrate solution (contains 2× concentration of ATP and DLG substrate in 1× assay buffer). Plates were then centrifuged for 1 min at 1200 RPM and sealed or lidded. For 4 μL reaction volume, test compounds were therefore diluted 100× to final top concentration of 20 μM. After 90 minute incubation, reactions were quenched by addition of 2 μL/well Promega ADP-Glo Reagent, followed by centrifugation and lidding. After 60 min incubation, 2 μL/well Promega Kinase Detection Reagent was added, plates centrifuged, and incubated for 30 min. Plates were then read using Luminescence method on BMG PHERAstar FSX plate reader. Percent inhibition was calculated and IC50s were determined using 4-parameter fit in Genedata Screener. Labcyte Echo acoustic dispenser was used for compound addition, and Formulatrix Tempest liquid handler was used for all reagent dispenses.
In general terms: ADP-Glo turns the ADP formed in a reaction into a luminescent signal.

Another assay addresses T2, DGKζ (Homo sapiens, UniProt Q13574).
T2 construct: His; purchased Signal Chem D30-10H
In words: In vitro DGKζ inhibition assay (ADP-Glo). It is filed as biochemical. The following applies: His-tagged human recombinant enzyme, 0.4 nM DGKζ, 30 μM ATP, 20 μM DLG, 90 minute incubation. How it is done: as §1, §2

T2 sequence (Q13574 whole entry): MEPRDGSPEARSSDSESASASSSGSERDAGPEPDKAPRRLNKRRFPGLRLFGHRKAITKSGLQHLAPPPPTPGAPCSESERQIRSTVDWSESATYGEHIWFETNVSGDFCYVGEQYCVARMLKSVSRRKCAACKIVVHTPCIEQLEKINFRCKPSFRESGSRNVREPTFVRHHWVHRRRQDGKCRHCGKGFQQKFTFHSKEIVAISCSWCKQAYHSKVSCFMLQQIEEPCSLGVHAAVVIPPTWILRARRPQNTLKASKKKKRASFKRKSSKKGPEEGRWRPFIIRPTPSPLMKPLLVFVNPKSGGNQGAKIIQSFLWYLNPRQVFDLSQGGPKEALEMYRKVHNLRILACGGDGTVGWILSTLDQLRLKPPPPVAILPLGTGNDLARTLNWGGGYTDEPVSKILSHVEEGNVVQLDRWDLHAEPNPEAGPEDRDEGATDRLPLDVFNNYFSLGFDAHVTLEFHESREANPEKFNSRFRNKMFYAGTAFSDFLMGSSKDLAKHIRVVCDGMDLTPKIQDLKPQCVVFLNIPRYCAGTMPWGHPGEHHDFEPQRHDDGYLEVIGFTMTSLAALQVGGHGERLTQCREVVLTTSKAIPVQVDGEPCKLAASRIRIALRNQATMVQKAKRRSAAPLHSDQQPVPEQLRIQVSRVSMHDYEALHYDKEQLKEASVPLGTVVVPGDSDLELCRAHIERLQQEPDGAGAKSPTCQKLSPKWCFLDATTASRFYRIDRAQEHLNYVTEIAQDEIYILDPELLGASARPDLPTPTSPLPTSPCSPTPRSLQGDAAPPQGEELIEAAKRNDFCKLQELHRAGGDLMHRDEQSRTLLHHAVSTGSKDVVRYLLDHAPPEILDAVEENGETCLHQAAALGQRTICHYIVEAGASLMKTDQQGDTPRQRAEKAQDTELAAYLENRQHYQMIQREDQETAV
T1 sequence (P23743 whole entry): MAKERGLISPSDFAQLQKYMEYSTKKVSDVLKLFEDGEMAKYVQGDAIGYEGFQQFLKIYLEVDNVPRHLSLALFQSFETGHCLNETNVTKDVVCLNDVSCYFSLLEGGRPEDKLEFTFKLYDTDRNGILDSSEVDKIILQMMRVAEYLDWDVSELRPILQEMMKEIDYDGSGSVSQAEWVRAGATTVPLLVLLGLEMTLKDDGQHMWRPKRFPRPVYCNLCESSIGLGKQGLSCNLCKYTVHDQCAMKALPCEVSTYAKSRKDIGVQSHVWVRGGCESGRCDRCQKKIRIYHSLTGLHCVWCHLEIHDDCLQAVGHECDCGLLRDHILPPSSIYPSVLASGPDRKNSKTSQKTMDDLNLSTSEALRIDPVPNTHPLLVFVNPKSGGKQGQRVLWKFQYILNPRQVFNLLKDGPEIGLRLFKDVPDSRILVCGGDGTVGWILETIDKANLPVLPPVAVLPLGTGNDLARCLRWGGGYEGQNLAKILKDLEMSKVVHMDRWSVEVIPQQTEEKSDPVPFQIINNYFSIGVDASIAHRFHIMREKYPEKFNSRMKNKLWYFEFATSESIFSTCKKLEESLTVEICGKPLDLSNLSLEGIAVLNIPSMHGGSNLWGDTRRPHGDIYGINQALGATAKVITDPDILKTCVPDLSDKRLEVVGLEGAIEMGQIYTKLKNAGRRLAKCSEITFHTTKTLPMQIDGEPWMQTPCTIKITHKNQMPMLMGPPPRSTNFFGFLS

For the compound `CC[C@H]1CN(C(c2ccc(F)cc2)c2ccc(F)cc2)[C@H](CC)CN1c1nc2nncn2c2cccnc12` [Example 2, 5-((2S,5R)-4-(Bis(4-fluorophenyl)methyl)-2,5-diethylpiperazin-1-yl)pyrido[2,3-e][1,2,4]triazolo[4,3-a]pyrimidine], the pIC50 on DGKα and at DGKζ was not below 7.70 each time.
As for `CC[C@@H]1CN(c2nc3nncn3c3cccnc23)[C@@H](C)CN1Cc1cccc2ccccc12` [Example 11, 5-((2S,5R)-5-Ethyl-2-methyl-4-(naphthalen-1-ylmethyl)piperazin-1-yl)pyrido[2,3-e][1,2,4]triazolo[4,3-a]pyrimidine], the pIC50 at DGKα and at DGKζ was not below 7.70 in each case.
For `CC[C@@H]1CN(c2nc3nncn3c3cccnc23)[C@@H](C)CN1C(C(=O)OC)c1ccc(F)cc1` (single isomer, unassigned) [Example 13], the pIC50 on DGKα was not below 7.70; at DGKζ, 6.70 to 7.70.
In the case of `CC[C@H]1CN(C(c2ccc(F)cc2)c2ccc(F)cc2)[C@H](CC)CN1c1cc2nncn2c2cccnc12` [Example 7, 5-((2S,5R)-4-(Bis(4-fluorophenyl)methyl)-2,5-diethylpiperazin-1-yl)-[1,2,4]triazolo[4,3-a][1,5]naphthyridine], the figures for the negative-log IC50 (pIC50) at DGKα and on DGKζ were not below 7.70 and 6.70 to 7.70, respectively.
For `CC[C@@H]1CN(c2nc3nncn3c3cccnc23)[C@@H](C)CN1C(c1ccc(F)cc1)c1nc(C2CC2)no1` (mixture of isomers) [Example 9, 3-Cyclopropyl-5-(((2R,5S)-2-ethyl-5-methyl-4-(pyrido[2,3-e][1,2,4]triazolo[4,3-a]pyrimidin-5-yl)piperazin-1-yl)(4-fluorophenyl)methyl)-1,2,4-oxadiazole], the pIC50 was not below 7.70 on DGKα and 6.70 to 7.70 at DGKζ.
Consider `CC[C@@H]1CN(c2nc3nncn3c3nccnc23)[C@@H](C)CN1C(c1ccc(F)cc1)c1ccc(F)cc1` [Example 8, 5-((2S,5R)-4-(Bis(4-fluorophenyl)methyl)-5-ethyl-2-methylpiperazin-1-yl)-[1,2,4]triazolo[4,3-a]pteridine], for which the negative logarithm of the IC50 (pIC50) at DGKα and at DGKζ was not below 7.70 throughout.
With `CC[C@H]1CN(C(c2ccc(F)cc2)c2ccc(F)cc2)[C@H](CC)CN1c1nc2nncn2c2ccc(C)nc12` [Example 1, 5-((2S,5R)-4-(Bis(4-fluorophenyl)methyl)-2,5-diethylpiperazin-1-yl)-7-methylpyrido[2,3-e][1,2,4]triazolo[4,3-a]pyrimidine], the pIC50 at DGKα and on DGKζ was not below 7.70 in each case.
In the case of `CC[C@H]1CN(C(c2ccc(F)cc2)c2ccc(F)cc2)[C@H](CC)CN1c1nc2nncn2c2nccnc12` [Example 4, 5-((2S,5R)-4-(Bis(4-fluorophenyl)methyl)-2,5-diethylpiperazin-1-yl)-[1,2,4]triazolo[4,3-a]pteridine], the pIC50 at DGKα and on DGKζ was not below 7.70 throughout.
In the case of `CC[C@H]1CN(C(c2ccc(F)cc2)c2ccc(F)cc2)[C@H](CC)CN1c1nc2nncn2c2ccc(C#N)nc12` [Example 5, 5-((2S,5R)-4-(Bis(4-fluorophenyl)methyl)-2,5-diethylpiperazin-1-yl)pyrido[2,3-e][1,2,4]triazolo[4,3-a]pyrimidine-7-carbonitrile], the negative logarithm of the IC50 (pIC50) on DGKα and at DGKζ was not below 7.70 throughout.
Consider `CC[C@@H]1CN(c2nc3nncn3c3cccnc23)[C@@H](C)CN1Cc1ccc2cc(F)ccc2n1` [Example 10, 5-((2S,5R)-5-Ethyl-4-((6-fluoroquinolin-2-yl)methyl)-2-methylpiperazin-1-yl)pyrido[2,3-e][1,2,4]triazolo[4,3-a]pyrimidine], for which the pIC50 is not below 7.70 at DGKα and 6.70 to 7.70 on DGKζ.
On to `CC[C@@H]1CN(c2nc3nncn3c3cccnc23)[C@@H](C)CN1C(c1ccc(F)cc1)C(C)(C)O` (single isomer, unassigned) [Example 14], for which the negative-log IC50 (pIC50) on DGKα is not below 7.70; on DGKζ, 5.70 to 6.70.
As to `CC[C@H]1CN(C(c2ccc(F)cc2)c2ccc(F)cc2)[C@H](CC)CN1c1nc2nncn2c2cc(-c3cnn(C)c3)cnc12` [Example 6, 5-((2S,5R)-4-(Bis(4-fluorophenyl)methyl)-2,5-diethylpiperazin-1-yl)-8-(1-methyl-1H-pyrazol-4-yl)pyrido[2,3-e][1,2,4]triazolo[4,3-a]pyrimidine], the values for the pIC50 at DGKα and on DGKζ were not below 7.70 and less than 5.70, respectively.
Taken in the same sequence, the figures for `CC[C@@H]1CN(c2nc3nncn3c3cccnc23)[C@@H](C)CN1C(c1ccc(F)cc1)C(C)(C)O` (single isomer, unassigned) [Example 15] were 6.70 to 7.70 and 6.70 to 7.70.
`CC[C@H]1CN(C(c2ccc(F)cc2)c2ccc(F)cc2)[C@H](CC)CN1c1nc2nnc(C)n2c2cccnc12` [Example 3, 5-((2S,5R)-4-(Bis(4-fluorophenyl)methyl)-2,5-diethylpiperazin-1-yl)-1-methylpyrido[2,3-e][1,2,4]triazolo[4,3-a]pyrimidine]: the negative logarithm of the IC50 (pIC50) at DGKα and on DGKζ was not below 7.70 in each case.
With `CC[C@@H]1CN(c2nc3nncn3c3cccnc23)[C@@H](C)CN1C(C(=O)OC)c1ccc(F)cc1` (single isomer, unassigned) [Example 12], the negative-log IC50 (pIC50) on DGKα was not below 7.70; at DGKζ, 6.70 to 7.70.
